Laboratory results reported in publication PMC5410595, “In Vitro and In Silico Antidiabetic and Antimicrobial Evaluation of Constituents from Kickxia ramosissima (Nanorrhinum ramosissimum)” (Frontiers in Pharmacology, 2017).
pIC50: −log10 of the molar value. Entries after “also recorded” stand apart in the source; their conditions may differ.

Key:
[1] = system: formation of AGEs (BSA-MGO); assay: BSA-MGO antiglycation assay; format: biochemical; details: for Protein glycation BSA-MGO % inhibition: isolated constituents, highest test concentration; for pIC50: read-out: Protein glycation BSA-MGO IC50
Procedure: The BSA-glucose and BSA-MGO antiglycation assays were performed as reported before ([Amin et al., 2016]). The test protocol is attached as Supplementary Material ([Amin et al., 2016]).
60 Protein-glyoxal interaction (BSA-MGO assay)
61 The antiglycation assay using methylgloxyl (MGO) was performed according to the method
62 developed by Peng et al. (2007) with slight modifications. Briefly, methylglyoxal (135 μL, 5.75
63 mM) was incubated with BSA (135 μL, 10 mg/mL) dissolved in phosphate buffer (50 mM, pH
64 7.4, containing sodium azide (0.02%), added to prevent bacterial growth) and test compounds
65 (30 μL) at different final concentrations (1.5 – 0.023 mM) in 100% DMSO. The reaction
66 mixture was incubated at 37 °C for one week. Control solutions only contained methylglyoxal
67 (135 μL, 5.75 mM) BSA (135 μL, 1 0mg/mL) and DMSO (100%) only. The blank samples of
68 similar composition were also prepared simultaneously and kept at 4 °C for one week. The
70 440) due to formation of AGEs was monitored by spectrofluorometry (Tecan® Infinite M200,
71 Giessen, The Netherlands). Aminoguanidine (3-0.046 mM final concentration) was used as
72 reference compound. The AGEs inhibition was calculated as
74 % AGEs inhibition = [1–(S–Sb)/(C–Cb)] x 100
76 where S and C were fluorescence of test samples (in DMSO) and control (test mixtures
77 containing only DMSO) incubated at 37 °C, and where Sb and Cb were fluorescence for
78 samples incubated at 4 °C.
79 using Sigma plot® 13.0.

[2] = system: AAPH induced linoleic acid peroxidation; assay: Inhibition of linoleic acid lipid peroxidation, AAPH assay; format: biochemical; details: slope of inhibition time (Tinh) vs. concentration of antioxidant
Procedure: The inhibition of linoleic acid lipid peroxidation was studied according to [Liegeois et al. (2000)] and [Rajic et al. (2010)]. Briefly, 10 μL of a 16 mM linoleic acid dispersion and 10 μL of the test compound (8-1 μM final concentration) were added to the UV cuvette containing 0.93 mL of 0.05 M phosphate buffer, pH 7.4. The oxidation reaction was initiated under air by the addition of 50 μL (40 mM) of AAPH solution. The rate of oxidation at 37°C was monitored by recording the increase of absorption at 234 nm caused by conjugated diene hydroperoxides. The results were compared to the standard inhibitor (Trolox). The AOP is defined as the slope of the curve representing the inhibition time of oxidation (Tinh) vs. the concentration of antioxidant and is expressed in min/μM.

[3] = system: Staphylococcus aureus; assay: Antimicrobial screening panel: Staphylococcus aureus; format: cell-based
Procedure: (§1) Fractions and isolated compounds were evaluated for antimicrobial activity in an integrated screening panel, also including the human MRC-5 cell line to assess selectivity, as reported before ([Cos et al., 2006]; [Mesia et al., 2008]; [Baldé et al., 2010]; [Amin et al., 2016]).

[4] = system: MRC-5, human fetal lung fibroblasts
Procedure: as §1

[5] = system: Plasmodium falciparum K1; assay: Antimicrobial screening panel: Plasmodium falciparum; format: cell-based
Procedure: as §1

[6] = system: Trypanosoma cruzi, Tulahuen LacZ, clone C4; assay: Antimicrobial screening panel: Trypanosoma cruzi; format: cell-based
Procedure: as §1

SMILES	Protein glycation BSA-MGO % inhibition [1]	AAPH assay AOP (antioxidant power) [2]	pIC50 [3]	cytotoxicity against MRC-5 cells [4]	pIC50 [1]	pIC50 [5]	pIC50 [6]
CO[C@H]1C[C@@]2(O)[C@H](O)[C@@H](O)[C@](C)(OC)[C@H]2[C@@H](OC)O1 [Compound 1, Kickxiasine]	31%	0.3 min/µM					
COC(=O)c1ccc(O)cc1 [Compound 7, 4-Hydroxy benzoic acid methyl ester]	did not present any inhibition; also recorded: no activity	did not present any activity; also recorded: Not active					
COc1ccc(-c2cc(=O)c3c(O)c(OC)c(O)cc3o2)cc1 [Compound 5, Pectolinarigenin]		0.2 min/µM	4.30	not cytotoxic	3.72	4.38	4.49
COC(=O)C1=COC(OC2OC(CO)C(O)C(O)C2O)C2C1CCC2(C)O (stereo not shown) [Compound 3, Mussaenoside]	24%	0.1 min/µM					
CC1(O)CCC2C(C(=O)O)=COC(OC3OC(CO)C(O)C(O)C3O)C21 (stereo not shown) [Compound 2, Mussaenosidic acid]	23%	0.2 min/µM					
COc1ccc(-c2cc(=O)c3c(O)c(OC)c(O[C@@H]4O[C@H](CO[C@@H]5O[C@@H](C)[C@H](O)[C@@H](O)[C@H]5O)[C@@H](O)[C@H](O)[C@H]4O)cc3o2)cc1 [Compound 6, Pectolinarin]		0.3 min/µM			3.89		
